Test system: Bacillus subtilis ATCC 6633
Experiment: Determination of antibiotic activity, agar well diffusion, zones of growth inhibition
Assay type: cell-based
Conditions: nutrient 1.5% agar seeded with B. subtilis; 20 microlitres of test compound as a solution in ethanol (5-10 mg/L) per well; incubated overnight
Description: A 3 ml overnight culture of Bacillus subtilis ATCC 6633 was grown at 30% C in nutrient broth (Difco). 200 ml of nutrient 1.5% agar (difco) at 46% C was seeded with 1 ml of the B.subtilis culture and poured immediately into petri dishes (25 ml/plate). After drying the plates in a laminar flow hood for 15 minutes, wells ([…] in diameter) were cut using a cork borer and 20 microlitres of the test compound as a solution in ethanol (5-10 mg/L) was added to each well. The plates were kept at 4% C for 5-7 hours to allow the compound to diffuse, and the plates were then incubated overnight at 30% C.

COC1(C)CC(OC2C(C)C(=O)OC(C(C)C)C(C)(O)C(O)C(C)C(=O)C(C)CC(C)(O)C(OC3OC(C)CC(N(C)C)C3O)C2C)OC(C)C1O (centres unmarked) [(i-but)-erythromycin A]
zones of growth inhibition: Clear zones of growth inhibition

CCC(C)C1OC(=O)C(C)C(OC2CC(C)(OC)C(O)C(C)O2)C(C)C(OC2OC(C)CC(N(C)C)C2O)C(C)(O)CC(C)C(=O)C(C)C(O)C1(C)O (centres unmarked) [(s-pent)-erythromycin A]
zones of growth inhibition: Clear zones of growth inhibition
